Reference: publication PMC6934184, “Selective DNA-PKcs inhibition extends the therapeutic index of localized radiotherapy and chemotherapy” (The Journal of Clinical Investigation, 2019)

Target: T1, JAK3 (Homo sapiens, UniProt P52333)
T1 construct: purchased Thermo Fisher Scientific (Life Technologies) SelectScreen
Test: SelectScreen Z'LYTE
Format: biochemical
In short: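 Percent values come from Thermo SelectScreen profiling of NU5455, combining activity and binding assays. CSF1R was run in Z'LYTE format at Km app ATP, and CAMK1 in Adapta format with ATP listed at 10.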

T1 sequence (P52333 whole entry): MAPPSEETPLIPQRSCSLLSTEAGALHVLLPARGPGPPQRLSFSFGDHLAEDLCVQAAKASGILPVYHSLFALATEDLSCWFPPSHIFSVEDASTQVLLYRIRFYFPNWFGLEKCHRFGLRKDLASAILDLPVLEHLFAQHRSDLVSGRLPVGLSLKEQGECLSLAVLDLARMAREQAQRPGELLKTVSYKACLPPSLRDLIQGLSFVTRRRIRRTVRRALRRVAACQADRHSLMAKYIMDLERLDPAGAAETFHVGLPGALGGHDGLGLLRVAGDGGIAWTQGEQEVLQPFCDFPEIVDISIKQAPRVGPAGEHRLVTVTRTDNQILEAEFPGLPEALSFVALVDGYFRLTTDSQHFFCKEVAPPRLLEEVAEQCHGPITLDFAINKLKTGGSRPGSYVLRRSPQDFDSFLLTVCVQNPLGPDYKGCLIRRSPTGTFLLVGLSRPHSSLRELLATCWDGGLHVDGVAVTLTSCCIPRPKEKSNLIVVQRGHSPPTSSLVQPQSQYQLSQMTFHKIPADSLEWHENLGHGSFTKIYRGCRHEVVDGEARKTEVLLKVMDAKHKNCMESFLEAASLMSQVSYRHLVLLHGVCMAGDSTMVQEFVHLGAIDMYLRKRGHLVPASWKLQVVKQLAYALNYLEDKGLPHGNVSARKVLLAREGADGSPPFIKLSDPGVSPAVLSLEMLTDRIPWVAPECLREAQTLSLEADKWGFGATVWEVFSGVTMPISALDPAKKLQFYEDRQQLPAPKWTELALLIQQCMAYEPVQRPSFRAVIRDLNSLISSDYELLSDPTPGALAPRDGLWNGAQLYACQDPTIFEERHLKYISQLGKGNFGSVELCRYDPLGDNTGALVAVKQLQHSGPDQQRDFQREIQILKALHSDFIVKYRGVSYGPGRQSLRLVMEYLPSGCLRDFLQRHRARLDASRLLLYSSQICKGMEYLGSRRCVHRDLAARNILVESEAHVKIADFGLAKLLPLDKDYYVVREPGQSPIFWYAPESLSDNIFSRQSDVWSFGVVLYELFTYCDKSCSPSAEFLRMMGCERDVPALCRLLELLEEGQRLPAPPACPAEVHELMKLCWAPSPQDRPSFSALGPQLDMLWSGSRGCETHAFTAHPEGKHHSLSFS

## CN(C(=O)CN1CCOCC1)c1ccc2sc3c(-c4cccc5c(=O)cc(N6CC7CCC(C6)O7)oc45)cccc3c2c1 [NU5455]
  inhibition at 1 µM: 6%
